Reference: US7220775B2, “Compound useful for the treatment of neuropathic pain” (H. Lundbeck A/S, priority 2002, dated 2007)
Like-named read-outs stand apart in the source and are kept apart here.

Tests used:
human GAL1 receptor = target: T1, human GAL1 receptor (Homo sapiens, UniProt P47211); experiment: Radioligand binding at cloned human GAL1 receptor; conditions: read-out: Ki (nM) GalR1
T1 construct: expressed in transfected cells
T1 sequence (P47211 1-349): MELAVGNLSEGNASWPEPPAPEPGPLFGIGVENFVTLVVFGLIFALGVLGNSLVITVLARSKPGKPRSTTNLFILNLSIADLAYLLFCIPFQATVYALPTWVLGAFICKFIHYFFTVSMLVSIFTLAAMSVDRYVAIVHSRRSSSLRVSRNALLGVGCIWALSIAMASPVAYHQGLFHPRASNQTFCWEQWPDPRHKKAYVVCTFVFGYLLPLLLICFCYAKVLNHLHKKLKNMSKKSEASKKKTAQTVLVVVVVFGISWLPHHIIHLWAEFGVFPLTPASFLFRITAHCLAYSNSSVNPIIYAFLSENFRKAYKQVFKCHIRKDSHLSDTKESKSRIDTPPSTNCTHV
Protocol: (§1) The present invention provides for a method of determining the binding affinity of a GAL3 antagonist, wherein the GAL3 antagonist is dissolved in a “suitable solvent”. A “suitable solvent” means one which permits the measurement of binding affinity of the GAL3 antagonist to the human GAL3 receptor at concentrations less than 1 μM, preferably less than 100 nM. Examples of solvents include, but are not limited to, DMSO, ethanol, N,N-dimethylacetamide, or water. For indolones, the preferred solvent is 3% DMSO (final concentration in the assay). For pyrimidines, the preferred solvent is 1% ethanol/0.09% polypuronic acid F-127 (final concentration in the assay). For any other type of compounds, the preferred solvent is the solvent which permits the measurement of binding affinity of a GAL3 antagonist at the lowest concentration. Once a suitable solvent is ascertained for the binding assay of the human GAL3 receptor, the same solvent is used in assays to determine the binding affinity for instance, at the GAL1 receptor.
(§2) LM(tk−) cells were stably transfected with the human GAL1 or GAL3 receptor. CHO cells were stably transfected with the human GAL2 receptor.
(§3) cDNAs for the human and rat GAL1, and human and rat GAL3 receptors were transfected with a G-418 resistant gene into the mouse fibroblast LM(tk−) cell line by a calcium phosphate transfection method (Cullen, 1987). Stably transfected cells were selected with G-418. Human and rat GAL2 receptors were similarly transfected into CHO cells.
Membranes were harvested from stably transfected LM(tk−) cells. Adherent cells were washed twice in ice-cold phosphate buffered saline (138 mM NaCl, 8.1 mM Na2HPO4, […] KCl, 1.2 mM KH2PO4, 0.9 mM CaCl2, 0.5 mM MgCl2, pH 7.4) and lysed by sonication in ice-cold sonication buffer (20 mM Tris-HCl, 5 mM EDTA, pH 7.7). Large particles and debris were cleared by low speed centrifugation (200×g, 5 min, 4° C.). Membranes were collected from the supernatant fraction by centrifugation (32,000×g, 18 min, 4° C.), washed with ice-cold hypotonic buffer, and collected again by centrifugation (32,000×g, 18 min, 4° C.). The final membrane pellet was resuspended by sonication into a small volume of ice-cold binding buffer (˜1 ml for every 5 plates: 10 mM NaCl, […] HEPES, 0.22 mM KH2PO4, 1.26 mM Cal2, 0.81 mM MgSO4, pH 7.4). Protein concentration was measured by the Bradford method (Bradford, 1976) using Pio-Rad Reagent, with bovine serum albumin as a standard. Membranes were held on ice for up to one hour and used fresh, or flash frozen and stored in liquid nitrogen. Membranes were prepared similarly from CHO cells. […]
(§4) Binding data were analyzed using nonlinear regression and statistical techniques available in the GraphPAD Prism package (San, Diego, Calif.). […]

human GAL2 receptor = target: T2, human GAL2 receptor (Homo sapiens, UniProt O43603); experiment: Radioligand binding at cloned human GAL2 receptor; conditions: read-out: Ki (nM) GalR2
T2 construct: expressed in transfected cells
T2 sequence (O43603 1-387): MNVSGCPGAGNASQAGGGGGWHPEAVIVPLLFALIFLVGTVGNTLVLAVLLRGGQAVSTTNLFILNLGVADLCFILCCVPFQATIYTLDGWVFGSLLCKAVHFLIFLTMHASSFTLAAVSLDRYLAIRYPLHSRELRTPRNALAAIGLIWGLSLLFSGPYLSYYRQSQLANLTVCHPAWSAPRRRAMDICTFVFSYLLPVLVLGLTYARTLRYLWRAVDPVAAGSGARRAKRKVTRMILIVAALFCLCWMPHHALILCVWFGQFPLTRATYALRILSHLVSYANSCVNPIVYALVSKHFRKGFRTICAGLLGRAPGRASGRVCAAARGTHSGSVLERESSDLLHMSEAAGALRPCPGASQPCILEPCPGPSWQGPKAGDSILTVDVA
Protocol: as §1, §2, §3
(§5) Membranes were harvested from stably transfected LM(tk−) cells. Adherent cells were washed twice in ice-cold phosphate buffered saline (138 mM NaCl, 8.1 mM Na2HPO4, […] KCl, 1.2 mM KH2PO4, 0.9 mM CaCl2, 0.5 mM MgCl2, pH 7.4) and lysed by sonication in ice-cold sonication buffer (20 mM Tris-HCl, 5 mM EDTA, pH 7.7). […] Protein concentration was measured by the Bradford method (Bradford, 1976) using Pio-Rad Reagent, with bovine serum albumin as a standard. […]
as §4

human GAL3 receptor = target: T3, human GAL3 receptor (Homo sapiens, UniProt O60755); experiment: Radioligand binding at cloned human GAL3 receptor
T3 construct: expressed in transfected cells
T3 sequence (O60755 1-368): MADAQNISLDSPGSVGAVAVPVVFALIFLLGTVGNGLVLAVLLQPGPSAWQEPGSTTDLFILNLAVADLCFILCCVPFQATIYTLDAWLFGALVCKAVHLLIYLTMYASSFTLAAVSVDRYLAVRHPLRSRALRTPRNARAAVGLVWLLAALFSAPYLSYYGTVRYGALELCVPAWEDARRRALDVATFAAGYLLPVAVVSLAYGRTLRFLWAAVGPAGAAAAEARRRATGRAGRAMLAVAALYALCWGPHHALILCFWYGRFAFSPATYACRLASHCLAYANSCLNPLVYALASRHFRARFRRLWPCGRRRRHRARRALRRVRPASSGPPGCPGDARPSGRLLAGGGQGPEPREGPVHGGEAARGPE
Protocol: as §1, §2, §3, §5, §4

## COc1ccc(N2CCN(c3nc(Nc4ccc(C)cc4)cc(N4CCCCC4)n3)CC2)c(OC)c1 [Example 28]
Human GAL1 receptor; Table 1, pyrimidines
  Ki: > 5000 nM
Human GAL2 receptor; Table 1, pyrimidines
  Ki: > 5000 nM
Human GAL3 receptor; Table 1, pyrimidines, read-out: Ki (nM) GalR3
  Ki: 270 nM

## CN(C)c1cc(N)nc(N(c2ccccc2)c2ccc(Cl)cc2)n1 [Example 58]
Human GAL1 receptor; Table 2, pyrimidines
  Ki: > 5000 nM
Human GAL2 receptor; Table 2, pyrimidines
  Ki: > 5000 nM
Human GAL3 receptor; Table 2, pyrimidines, read-out: Ki (nM) GalR3
  Ki: 783 nM

## CN(C)c1cc(NC2C3CC4CC(C3)CC2C4)nc(N2CCN(Cc3ccccc3)CC2)n1 (stereo not shown) [Example 137]
Human GAL3 receptor; Table 3a, pyrimidines, read-out: Ki (nM) Gal3
  Ki: 124 nM
